Some test systems named below: SK-MEL-2; RXF 393; IGROV-1; LOX IMVI; HOP-62; HOP-92; SK-MEL-5; OVCAR-4; OVCAR-8; KM12; ACHN; DMS-273; TK-10; SK-MEL-28; HCT-15; A498; OVCAR-5.
What all share (assay): DTP human tumour cell line panel, 48 h

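Cultured in 96-well plates, cells were exposed to test compound for 48 hours across five concentrations. GI50: concentration for 50% inhibition of growth.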 Active and inactive are the calls of the source. No stated cut-off is given here; in the data, active = GI50 up to about 1.1 µM and inactive = higher. Bounds are passed on as bounds.

For orientation: GI50 means the concentration at which growth is held to half of that of the control. For the compound `Cc1ccc(C)c(C(=O)CC2OC(O)C(Cl)C2Cl)c1` (configuration not stated), the GI50 with SK-MEL-2 was 84.5 µM (inactive); with RXF 393 it was 26.2 µM (inactive); in the assay on IGROV-1, > 100 µM (inactive); in the assay with LOX IMVI it was 18.9 µM (inactive); in the assay on HOP-62 it was > 100 µM (inactive); in the assay with HOP-92 it was 30.6 µM (inactive). The GI50 in the assay with SK-MEL-5 was > 100 µM (inactive); in the assay with OVCAR-4, > 100 µM (inactive); in the assay on OVCAR-8, 18.3 µM (inactive); in the assay with KM12, > 100 µM (inactive); in the assay on ACHN, 42.5 µM (inactive); in the assay with DMS-273, 63.1 µM (inactive). Also, the GI50 with TK-10 was > 100 µM (inactive); with SK-MEL-28 it was 39.5 µM (inactive); in the assay with HCT-15 it was 34.8 µM; with A498, > 100 µM (inactive); in the assay on OVCAR-5, > 100 µM (inactive).
On to `CSc1nc(CO)c(CO)n1C`, for which the GI50 in the assay with SK-MEL-2, in the assay with RXF 393, in the assay with IGROV-1, in the assay with LOX IMVI, in the assay on HOP-62 and in the assay on HOP-92 was > 100 µM (inactive) in each case. Besides, the GI50 in the assay on SK-MEL-5, in the assay on OVCAR-4, in the assay on OVCAR-8, in the assay with KM12, with DMS-273 and with SK-MEL-28 was > 100 µM (inactive) in each case. The GI50 in the assay on HCT-15 is more than 100 µM; in the assay on A498, > 100 µM (inactive); in the assay with OVCAR-5, > 100 µM (inactive).
For the compound `CC(=O)Nc1ccc(-c2nnc(SCC(=O)Nc3ccccc3Cl)o2)cc1`, the GI50 in the assay on SK-MEL-2, in the assay with RXF 393, in the assay on IGROV-1, with LOX IMVI, in the assay with HOP-62 and in the assay with SK-MEL-5 was > 100 µM (inactive) in each case. In addition, the GI50 in the assay with OVCAR-4, in the assay on OVCAR-8, in the assay on KM12, in the assay with ACHN, with DMS-273 and in the assay with TK-10 was > 100 µM (inactive) throughout. Moreover, the GI50 with SK-MEL-28 is > 100 µM (inactive); in the assay with HCT-15 it was more than 100 µM; in the assay on A498 it was > 100 µM (inactive); with OVCAR-5, > 100 µM (inactive).
As to `CC(C)(C)c1cc(CCC(=O)Nc2ccc(Cl)cc2)nc(NC#N)n1`, the GI50 in the assay with SK-MEL-2 is > 100 µM (inactive); in the assay with IGROV-1, > 100 µM (inactive); in the assay on LOX IMVI it was > 100 µM (inactive); with HOP-62, > 100 µM (inactive); in the assay with HOP-92, 91 µM (inactive); in the assay on OVCAR-4, > 100 µM (inactive). For the same compound, the GI50 with OVCAR-8, with KM12, with ACHN, in the assay with DMS-273, with TK-10 and with SK-MEL-28 was > 100 µM (inactive) in each case. In addition, the values for the GI50 in the assay with HCT-15 and with OVCAR-5 were more than 100 µM and > 100 µM (inactive), respectively.
With `O=c1[c-](-c2ccccc2)[se]c(-c2ccccc2)[n+]1-c1ccccc1`, the GI50 is 6.55 µM (inactive) in the assay with SK-MEL-2; 3.18 µM (inactive) in the assay with RXF 393; 3.71 µM (inactive) in the assay with IGROV-1; 13.3 µM (inactive) in the assay on LOX IMVI; 18.6 µM (inactive) in the assay with HOP-92; 13 µM (inactive) in the assay on SK-MEL-5. The GI50 in the assay with OVCAR-4 was 2.35 µM (inactive); in the assay on OVCAR-8 it was 3.8 µM (inactive); in the assay with KM12 it was 10.3 µM (inactive); in the assay with DMS-273, 19.1 µM (inactive); with TK-10 it was 8.32 µM (inactive); with SK-MEL-28, 9.31 µM (inactive). In addition, the GI50 in the assay with HCT-15 is 13.2 µM; in the assay with A498 it was 10 µM (inactive).
For the compound `Cc1cc2c(cc1C)[n+]([O-])c(C(=O)C/C(=N/NC(=O)CC#N)C(=O)Nc1ccccc1C(F)(F)F)c(C)[n+]2[O-]`, the GI50 in the assay with SK-MEL-2 was 39.5 µM (inactive); in the assay with RXF 393, 77.1 µM (inactive); with IGROV-1, > 100 µM (inactive); in the assay on LOX IMVI, 53.8 µM (inactive); in the assay with HOP-62 it was > 100 µM (inactive); with OVCAR-4 it was 44 µM (inactive). Moreover, the GI50 with OVCAR-8 is 50.8 µM (inactive); in the assay with KM12, 34 µM (inactive); in the assay with ACHN it was 29.7 µM (inactive); with DMS-273 it was 53.6 µM (inactive); in the assay on TK-10, > 100 µM (inactive); in the assay with SK-MEL-28 it was 70.8 µM (inactive). The GI50 is 36.6 µM in the assay on HCT-15, 52 µM (inactive) in the assay on A498 and 62.2 µM (inactive) in the assay on OVCAR-5.
Consider `O=C1C=C(Nc2ccc(Br)cc2)c2ccccc2C1=O`, for which the GI50 was 15.5 µM (inactive) in the assay on SK-MEL-2; 16.7 µM (inactive) in the assay with RXF 393; 14.8 µM (inactive) in the assay with IGROV-1; 16.9 µM (inactive) with HOP-62; 2.09 µM (inactive) in the assay with OVCAR-4; 12.5 µM (inactive) in the assay with OVCAR-8. Further, the GI50 with KM12 is 14.1 µM (inactive); in the assay with ACHN, 4.75 µM (inactive); in the assay on DMS-273 it was 12.2 µM (inactive); with TK-10, 19.6 µM (inactive); in the assay on SK-MEL-28 it was 17.2 µM (inactive); in the assay on HCT-15 it was 5.26 µM. Further, the results for the GI50 with A498 and in the assay with OVCAR-5 were 17.2 µM (inactive) and 20.8 µM (inactive), respectively.
For the compound `CC(=O)Oc1cc2c(cc1OC(C)=O)OCC(c1ccccc1)C2` (configuration not stated), the GI50 is 27.4 µM (inactive) in the assay with SK-MEL-2; 14.4 µM (inactive) in the assay with RXF 393; 33.8 µM (inactive) with IGROV-1; 13.5 µM (inactive) in the assay with LOX IMVI; 19.1 µM (inactive) with HOP-62; 9.23 µM (inactive) in the assay on HOP-92. Also, the GI50 with SK-MEL-5 was 17.3 µM (inactive); with OVCAR-4 it was 24 µM (inactive); in the assay with OVCAR-8, 16.9 µM (inactive); in the assay on KM12, 25.8 µM (inactive); in the assay on DMS-273, 34.2 µM (inactive); with SK-MEL-28, 31 µM (inactive). In addition, the GI50 in the assay on HCT-15 is 13 µM; in the assay with A498, 7.05 µM (inactive); with OVCAR-5, 33.3 µM (inactive).
With `CSc1s[s+]c(SC)c1[O-]`, the GI50 in the assay on SK-MEL-2 was 32.3 µM (inactive); in the assay with RXF 393, 21.2 µM (inactive); in the assay with IGROV-1, 83.6 µM (inactive); in the assay on HOP-62, > 100 µM (inactive); in the assay with HOP-92, 33 µM (inactive); in the assay on SK-MEL-5, 90.6 µM (inactive). For the same compound, the GI50 is 51.2 µM (inactive) with OVCAR-4; 20.1 µM (inactive) in the assay on OVCAR-8; 62.4 µM (inactive) in the assay with KM12; 38.4 µM (inactive) with ACHN; 27.4 µM (inactive) in the assay with DMS-273; > 100 µM (inactive) in the assay on TK-10. Further, the GI50 in the assay on SK-MEL-28 is 17.1 µM (inactive); in the assay on HCT-15, 32.9 µM; in the assay with A498, > 100 µM (inactive); with OVCAR-5, > 100 µM (inactive).
Turning to `CC(=O)c1c(P(=O)(OC(C)C)OC(C)C)nn(-c2ccc([N+](=O)[O-])cc2)c1C`, the GI50 with SK-MEL-2, in the assay with IGROV-1, with HOP-62, in the assay on HOP-92, in the assay on SK-MEL-5 and in the assay on OVCAR-4 was > 100 µM (inactive) each time. Further, the GI50 in the assay on OVCAR-8, with KM12, in the assay with ACHN, in the assay with DMS-273, in the assay with TK-10 and in the assay with SK-MEL-28 was > 100 µM (inactive) each time. Besides, the GI50 in the assay on HCT-15 is more than 100 µM; with A498 it was > 100 µM (inactive); in the assay on OVCAR-5, > 100 µM (inactive).
As for `c1ccc2c(c1)OCCc1cn[nH]c1-2`, the GI50 with SK-MEL-2 is > 100 µM (inactive); with RXF 393, > 69.2 µM (inactive); with IGROV-1 it was > 100 µM (inactive); in the assay with LOX IMVI, > 100 µM (inactive); with HOP-62, > 61.7 µM (inactive); in the assay on HOP-92, > 42.3 µM (inactive). Moreover, the GI50 in the assay on SK-MEL-5, in the assay on OVCAR-4, with OVCAR-8, with KM12, in the assay on DMS-273 and in the assay with SK-MEL-28 was > 100 µM (inactive) throughout. Besides, the results for the GI50 with HCT-15, in the assay on A498 and in the assay on OVCAR-5 were more than 100 µM, > 93.5 µM (inactive) and > 100 µM (inactive), respectively.
`NC1=NS(=O)(=O)Nc2[nH]c(-c3ccccc3)nc21`: the GI50 with SK-MEL-2, in the assay with RXF 393, with IGROV-1, with LOX IMVI, with HOP-92 and with SK-MEL-5 was > 100 µM (inactive) each time. Moreover, the GI50 with OVCAR-4, with OVCAR-8, in the assay with KM12, with ACHN, with DMS-273 and with TK-10 was > 100 µM (inactive) each time. Further, the GI50 in the assay on SK-MEL-28 is > 100 µM (inactive); in the assay with HCT-15 it was more than 100 µM; in the assay on OVCAR-5, > 100 µM (inactive).
Consider `CCOC(=O)Nc1cc2nnc(-c3ccccc3)nc2c(N)n1`, for which the GI50 in the assay on SK-MEL-2 was 11.4 µM (inactive); in the assay with RXF 393, 18 µM (inactive); in the assay with IGROV-1 it was 13.9 µM (inactive); with LOX IMVI, 14.7 µM (inactive); in the assay on HOP-62, 17.3 µM (inactive); with HOP-92, 13 µM (inactive). The GI50 was 2.23 µM (inactive) in the assay on SK-MEL-5; 14.9 µM (inactive) in the assay on OVCAR-4; 23.6 µM (inactive) in the assay with OVCAR-8; 1.1 µM (active) with KM12; 5.7 µM (inactive) in the assay on ACHN; 7.36 µM (inactive) in the assay on DMS-273. Moreover, the GI50 is 37.5 µM (inactive) in the assay with TK-10, 16.2 µM (inactive) in the assay with SK-MEL-28, 6.46 µM in the assay on HCT-15 and 23.1 µM (inactive) in the assay on OVCAR-5.

For the origin of these results see ChEMBL document CHEMBL1201862, “PubChem BioAssay data set” (2004).
